According to article PMC11274883, “Anticancer Effect of Pt^[sequence], Pt^II5MESS, Pt^II56MESS and Their Platinum(IV)-Dihydroxy Derivatives against Triple-Negative Breast Cancer and Cisplatin-Resistant Colorectal Cancer” (Cancers, 2024):

Columns and labels:
Format in all cases: cell-based
[1] = system: A2780; experiment: WST-1 cytotoxicity, 72 h
Outline: (§1)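 Cells were seeded at 1000 per well and exposed to compound for 72 h. Viability was then read with WST-1 (1 h, absorbance at 450 nm). Apparent IC50 values came from nonlinear regression of % survival across three experiments, each with n = 3.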

[2] = system: ADDP; experiment: WST-1 cytotoxicity, 72 h
Outline: as §1

[3] = system: HT29; experiment: WST-1 cytotoxicity, 72 h
Outline: as §1

[4] = system: MCF−7; experiment: WST-1 cytotoxicity, 72 h
Outline: as §1

[5] = system: MDA−MB−231; experiment: WST-1 cytotoxicity, 72 h
Outline: as §1

[6] = system: MCF10A; experiment: WST-1 cytotoxicity, 72 h; settings: mean ± SEM
Outline: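 Cells seeded at 1000 per well, with WST-1 added after 72 h and absorbance read at 450 nm 1 h later. Apparent IC50 from a nonlinear fit of % survival versus log concentration; three separate experiments, each n = 3.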

[7] = system: HT29 cells; experiment: Western blot protein expression; settings: HT29, IC50, 72 h
Outline: (§2)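 Cells were lysed in RIPA buffer with orthovanadate, and 20 µg protein was run on SDS-PAGE, transferred to PVDF and probed for proliferation, apoptosis, microtubule and autophagy markers. ECL band intensities were normalised to GAPDH and then to untreated control. Three independent experiments were run per marker.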

[8] = system: MDA−MB−231 cells; experiment: Western blot protein expression; settings: MDA−MB−231, IC50, 72 h
Outline: as §2

[9] = representative blot Figure S30G
[10] = representative blot Figure S30H

Cc1cc2cccnc2c2ncccc12.N[C@H]1CCCC[C@@H]1N.O=[N+]([O-])[O-].O=[N+]([O-])[O-].[Pt+2] [Pt^II5MESS, [Pt(5-methyl-1,10-phenanthroline)(1S,2S-diaminocyclohexane)](NO3)2]
potency relative to cisplatin ([1]; A2780, 72 h): 33 fold
IC50 ([1]; A2780, 72 h, mean ± SEM): 650 ± 1710 nM
Selective cytotoxicity index (SCI) ([1]; IC50 MCF10A/IC50 A2780): 1.82
potency relative to cisplatin ([2]; ADDP, 72 h): 85 fold
IC50 ([2]; ADDP, 72 h, mean ± SEM): 1320 ± 1330 nM
Selective cytotoxicity index (SCI) ([2]; IC50 MCF10A/IC50 ADDP): 0.89
potency relative to cisplatin ([3]; HT29, 72 h): 149 fold
IC50 ([3]; HT29, 72 h, mean ± SEM): 550 ± 1420 nM
Selective cytotoxicity index (SCI) ([3]; IC50 MCF10A/IC50 HT29): 2.15
Selective cytotoxicity index (SCI) ([4]; IC50 MCF10A/IC50 MCF−7): 1.37
potency relative to cisplatin ([4]; MCF−7, 72 h): 38 fold
IC50 ([4]; MCF−7, 72 h, mean ± SEM): 860 ± 1670 nM
Selective cytotoxicity index (SCI) ([5]; IC50 MCF10A/IC50 MDA−MB−231): 2.27
potency relative to cisplatin ([5]; MDA−MB−231, 72 h): 25 fold
IC50 ([5]; MDA−MB−231, 72 h, mean ± SEM): 520 nM
IC50 [6]: 1180 ± 1750 nM
β-actin/GAPDH normalized to control (1) ([7]; representative blot Figure S28A): 0.2979
β-tubulin/GAPDH normalized to control (1) ([7]; representative blot Figure S28B): 0.1238
α-tubulin/GAPDH normalized to control (1) ([7]; representative blot Figure S28C): 0.06789
p-AKT/AKT/GAPDH normalized to control (1) ([7]; representative blot Figure S29A): 0.07338
p-ERK/ERK/GAPDH normalized to control (1) ([7]; representative blot Figure S29B): 0.7076
p53/GAPDH normalized to control (1) ([7]; representative blot Figure S29C): 1.275
p21/GAPDH normalized to control (1) ([7]; representative blot Figure S29D): 1.147
Bax/GAPDH normalized to control (1) ([7]; representative blot Figure S30A): 1.624
Bcl2/GAPDH normalized to control (1) ([7]; representative blot Figure S30B): 0.09591
Cyt C/GAPDH normalized to control (1) ([7]; representative blot Figure S30C): 3.741
Procaspase 8/GAPDH normalized to control (1) ([7]; representative blot Figure S30D): 0.2934
Cleaved BID/GAPDH normalized to control (1) ([7]; representative blot Figure S30E): 1.69
Procaspase 9/GAPDH normalized to control (1) ([7]; representative blot Figure S30F): 0.1393
Cleaved caspase 3/GAPDH normalized to control (1) [7, 9]: 10.88
Procaspase 3/GAPDH normalized to control (1) [7, 9]: 0.7678
Cleaved PARP-1/GAPDH normalized to control (1) [7, 10]: 11.42
PARP-1/GAPDH normalized to control (1) [7, 10]: 0.2554
Beclin1/GAPDH normalized to control (1) ([7]; representative blot Figure S31A): 3.11
ATG5/GAPDH normalized to control (1) ([7]; representative blot Figure S31B): 0.9969
ATG16L1/GAPDH normalized to control (1) ([7]; representative blot Figure S31C): 1.285
ATG9A/GAPDH normalized to control (1) ([7]; representative blot Figure S31D): 0.4486
ATG4B/GAPDH normalized to control (1) ([7]; representative blot Figure S31E): 0.7306
LC3B/GAPDH normalized to control (1) ([7]; representative blot Figure S31F): 1.207
β-actin/GAPDH normalized to control (1) ([8]; representative blot Figure S24A): 0.7082
β-tubulin/GAPDH normalized to control (1) ([8]; representative blot Figure S24B): 0.4163
α-tubulin/GAPDH normalized to control (1) ([8]; representative blot Figure S24C): 0.6399
p-AKT/AKT/GAPDH normalized to control (1) ([8]; representative blot Figure S25A): 0.5388
p-ERK/ERK/GAPDH normalized to control (1) ([8]; representative blot Figure S25B): 0.5947
p53/GAPDH normalized to control (1) ([8]; representative blot Figure S25C): 0.7809
p21/GAPDH normalized to control (1) ([8]; representative blot Figure S25D): 2.478
Bax/GAPDH normalized to control (1) ([8]; representative blot Figure S26A): 1.886
Bcl2/GAPDH normalized to control (1) ([8]; representative blot Figure S26B): 0.5074
Cytochrome C/GAPDH normalized to control (1) ([8]; representative blot Figure S26C): 1.513
Procaspase 8/GAPDH normalized to control (1) ([8]; representative blot Figure S26D): 0.5099
Cleaved BID/GAPDH normalized to control (1) ([8]; representative blot Figure S26E): 14.29
Procaspase 9/GAPDH normalized to control (1) ([8]; representative blot Figure S26F): 0.3101
Procaspase 3/GAPDH normalized to control (1) ([8]; representative blot Figure S26G): 0.5405
PARP-1/GAPDH normalized to control (1) ([8]; representative blot Figure S26H): 0.7693
Beclin1/GAPDH normalized to control (1) ([8]; representative blot Figure S27A): 2.588
ATG5/GAPDH normalized to control (1) ([8]; representative blot Figure S27B): 0.5948
ATG16L1/GAPDH normalized to control (1) ([8]; representative blot Figure S27C): 0.4742
ATG9A/GAPDH normalized to control (1) ([8]; representative blot Figure S27D): 0.2882
ATG4B/GAPDH normalized to control (1) ([8]; representative blot Figure S27E): 1.839
LC3B/GAPDH normalized to control (1) ([8]; representative blot Figure S27F): 0.9366
